Measured values from patent publication US10774385B2, “Method of determining risk of 5-fluorouracil toxicity” (Oxford University Innovation Limited, priority 2014, dated 2020).

Legend:
[1] = cited from earlier work
[2] = Spanish Capecitabine Pharmacogenetic (SCP) Study: diarrhea and HFS by CTCAE v3.0; format: in vivo, human; settings: capecitabine monotherapy
Procedure: Two additional data sets were used for validation of toxicity associations. The Spanish Capecitabine Pharmacogenetic (SCP) Study consisted of 233 colorectal and breast cancer patients prospectively recruited through several oncology units in Spain and treated with one of two capecitabine monotherapy regimens (standard: 1250 mg/m^2 twice daily d1-14 every 3 weeks; continuous: 800 mg/m^2 orally every 12 hours daily). HFS and diarrhea data Table 4 were collected according to CTCAEv3.0.

[3] = QUASAR2 trial: FU-related adverse events of capecitabine +/- bevacizumab graded by NCI CTCAE v3.0; format: in vivo, human
Procedure: The QUASAR2 study (http://www.octo-oxford.org.uk/alltrials/infollowup/q2.html; http://www.controlled-trials.com/ISRCTN45133151/) is a phase III randomised controlled trial of adjuvant capecitabine (Xeloda) (1250 mg/m2 twice daily d1-14 every 3 weeks, total of 8 cycles) +/−bevacizumab (7.5 mg/kg every three weeks) following resection of stage II/III CRC. Patients were entered into the study between July 2005 and December 2011 at 123 UK and 81 non-UK sites. Of 1119 patients with blood collected as of July 2010, 1046 were selected for study based on availability of clinical data and informed consent.
Adverse events were graded following each treatment cycle using the NCI Common Toxicity Criteria for Adverse Events (CTCAE) version 3.0. Common FU-related toxicities—diarrhea, nausea and vomiting, mucositis/stomatitis, neutropaenia, thrombocytopaenia, and HFS—were analysed individually and also in combination as “global” toxicity. Adverse events were categorised as low (CTCAE grade 0/1/2) and high (CTCAE grade 3/4/5 at any treatment cycle). Hypertension and proteinuria were clearly related to bevacizumab (˜10-fold higher incidence) and were not included in the analysis.
The QUASAR2 study was used as described in Example 1(a)(i). Of 1,119 patients with blood collected as of July 2010, 1,046 were selected for genetic study based on completeness of clinical data and informed consent.
Toxicity phenotype data were collected as part of QUASAR2 according the NCI Common Toxicity Criteria for Adverse Events (CTCAE) version 3.0. Maximum toxicity (0-4) at any treatment cycle was derived for each of the following individual FU-related toxicities: diarrhea, nausea and vomiting, mucositis/stomatitis, neutropaenia, thrombocytopaenia and HFS. A global measure of toxicity was derived, defined as the maximum individual toxicity score measured for each patient. Global and individual toxicities were analysed using two approaches: (i) a binary classification into low toxicity (grade 0-2) versus high (dose-limiting) toxicity (grade 3-4); and (ii) a quantitative measure of toxicity. In the latter, if <100 patients experienced a particular grade of toxicity, these patients were combined into a single bin with an adjacent grade. Specifically, grades 01v2v34 for global, diarrhea and HFS and 0v1234 for the other, rarer toxicity phenotypes were analysed.

[4] = patients selected for high and low toxicity
[5] = human, in vivo, 8 cycles of 3 weeks

Compound: O=c1[nH]cc(F)c(=O)[nH]1 [FU, 5-fluorouracil]
- Patients suffering substantial toxicities (Grade 3 or above, CTCAE v3.0) ([1]; FU chemotherapy, background statement): 10-30%
- Mortality (Grade 5, CTCAE v3.0) associated with FU use ([1]; overall, literature): 0.5-1.0%

Compound: CCCCCOC(=O)Nc1nc(=O)n(C2OC(C)C(O)C2O)cc1F (stereo not drawn) [capecitabine, pentyl [1-(3,4-dihydroxy-5-methyltetrahydrofuran-2-yl)-5-fluoro-2-oxo-1H-pyrimidin-4-yl]carbamate]
- Share of capecitabine patients suffering dose-limiting levels of drug-induced adverse events ([1]; background statement): approximately one third
- Mortality from rapid-onset toxicity relative to infusional and bolus 5-FU regimens (0.5% to 2%) ([1]; capecitabine schedules, literature): about half that number
- Patients, Diarrhoea, highest CTCAE grade reported during treatment: 0 ([2]; 233 colorectal and breast cancer patients, selected for high and low toxicity): 143
- Patients, Diarrhoea, highest CTCAE grade reported during treatment: 1 [2, 4]: 23
- Patients, Diarrhoea, highest CTCAE grade reported during treatment: 2 [2, 4]: 17
- Patients, Diarrhoea, highest CTCAE grade reported during treatment: 3 [2, 4]: 32
- Patients, Diarrhoea, highest CTCAE grade reported during treatment: 4 [2, 4]: 4
- Patients, Handfoot, highest CTCAE grade reported during treatment: 0 [2, 4]: 85
- Patients, Handfoot, highest CTCAE grade reported during treatment: 1 [2, 4]: 28
- Patients, Handfoot, highest CTCAE grade reported during treatment: 2 [2, 4]: 30
- Patients, Handfoot, highest CTCAE grade reported during treatment: 3 [2, 4]: 86
- Patients, Handfoot, highest CTCAE grade reported during treatment: 4 [2, 4]: 2
- Toxicity-induced deaths in QUASAR2 ([3]; QUASAR2, patients with grade 4 myelotoxicity): two
- Patients, Global adverse event, CTCAE grade 0 [3, 5]: 75
- Patients, Global adverse event, CTCAE grade 1 [3, 5]: 241
- Patients, Global adverse event, CTCAE grade 2 [3, 5]: 375
- Patients, Global adverse event, CTCAE grade 3 [3, 5]: 334
- Patients, Neutropaenia, CTCAE grade 0 [3, 5]: 921
- Patients, Neutropaenia, CTCAE grade 1 [3, 5]: 71
- Patients, Neutropaenia, CTCAE grade 2 [3, 5]: 28
- Patients, Neutropaenia, CTCAE grade 3 [3, 5]: 17
- Patients, Thrombocytopaenia, CTCAE grade 0 [3, 5]: 961
- Patients, Thrombocytopaenia, CTCAE grade 1 [3, 5]: 67
- Patients, Thrombocytopaenia, CTCAE grade 2 [3, 5]: 9
- Patients, Thrombocytopaenia, CTCAE grade 3 [3, 5]: 0
- Patients, Thrombocytopaenia, CTCAE grade 4 [3, 5]: 4
- Patients, Vomiting, CTCAE grade 3 [3, 5]: 12
- Patients, Vomiting, CTCAE grade 4 [3, 5]: 3
- Patients, Diarrhoea, CTCAE grade 0 ([3]; human, in vivo, 24 weeks): 370
- Patients, Diarrhoea, CTCAE grade 1 ([3]; human, in vivo, 24 weeks): 388
- Patients, Diarrhoea, CTCAE grade 2 ([3]; human, in vivo, 24 weeks): 175
- Patients, Diarrhoea, CTCAE grade 3 ([3]; human, in vivo, 24 weeks): 99
- Patients, Diarrhoea, CTCAE grade 4 ([3]; human, in vivo, 24 weeks): 10
- Patients, Global adverse event, CTCAE grade 4 ([3]; human, in vivo, 24 weeks): 19
- Patients, Handfoot, CTCAE grade 0 ([3]; human, in vivo, 24 weeks): 176
- Patients, Handfoot, CTCAE grade 1 ([3]; human, in vivo, 24 weeks): 287
- Patients, Handfoot, CTCAE grade 2 ([3]; human, in vivo, 24 weeks): 331
- Patients, Handfoot, CTCAE grade 3 ([3]; human, in vivo, 24 weeks): 246
- Patients, Handfoot, CTCAE grade 4 ([3]; human, in vivo, 24 weeks): 1
- Patients, Mucositis, CTCAE grade 0 ([3]; human, in vivo, 24 weeks): 734
- Patients, Mucositis, CTCAE grade 1 ([3]; human, in vivo, 24 weeks): 248
- Patients, Mucositis, CTCAE grade 2 ([3]; human, in vivo, 24 weeks): 49
- Patients, Mucositis, CTCAE grade 3 ([3]; human, in vivo, 24 weeks): 11
- Patients, Mucositis, CTCAE grade 4 ([3]; human, in vivo, 24 weeks): 0
- Patients, Stomatitis, CTCAE grade 0 ([3]; human, in vivo, 24 weeks): 718
- Patients, Stomatitis, CTCAE grade 1 ([3]; human, in vivo, 24 weeks): 244
- Patients, Stomatitis, CTCAE grade 2 ([3]; human, in vivo, 24 weeks): 67
- Patients, Stomatitis, CTCAE grade 3 ([3]; human, in vivo, 24 weeks): 11
- Patients, Stomatitis, CTCAE grade 4 ([3]; human, in vivo, 24 weeks): 1
- Patients, Vomiting, CTCAE grade 0 ([3]; human, in vivo, 24 weeks): 817
- Patients, Vomiting, CTCAE grade 1 ([3]; human, in vivo, 24 weeks): 134
- Patients, Vomiting, CTCAE grade 2 ([3]; human, in vivo, 24 weeks): 74
